Results reported in patent US9738648B2, “Pyridines, pyrimidines, and pyrazines, as BTK inhibitors and uses thereof” (Merck Patent GmbH, priority 2013, dated 2017).

Target: T1, full-length human BTK (Homo sapiens, UniProt Q06187)
T1 construct: 2.5× stocks of full-length human BTK (08-080) from CarnaBio USA, Inc; purchased CarnaBio USA, Inc., Natick, Mass; 08-080
Assay: BTK IC50 Enzyme Assay (Assay A), microfluidic off-chip mobility shift kinase assay
Type: biochemical
Conditions: kinKDR peptide substrate, 90 min at 27° C.
Protocol: BTK IC50 Enzyme Assay (Assay A)
The following describes a microfluidic, off-chip mobility shift kinase assay used to measure inherent potency of compounds against BTK enzyme.
2.5× stocks of full-length human BTK (08-080) from CarnaBio USA, Inc., Natick, Mass., 1.6×ATP and appropriate kinKDR peptide substrate (FITC-AHA-EEPLYWSFPAKKK10 NH2) were prepared in kinase reaction buffer consisting of 25 mM MgCl2, 0.015% Brij-35 (30%), 100 mM Hepes, pH 7.5, and 10 mM DTT.
5 uL of enzyme buffer and 7.5 uL of ATP/kinKDR peptide substrate mix were added to Matrix (#115304) 384-well, sterile, polypropylene plates (Thermo Fisher Scientific, 15 Hudson, N.H.) with 125 nL of serially diluted compounds prepared in 100% DMSO, and incubated for 90 min. at 27° C. Following the incubation period, reactions were stopped by adding 60 uL stop buffer consisting of 100 mM Hepes, pH 7.5, 0.015% Brij-35 (30%), 0.277% Coating Reagent #3 (Caliper Life Sciences, Mountain View, Calif.), 5% DMSO. Stopped reactions were monitored at −2 PSI, −3000 V/−700 V in a LabChip 3000 plate 20 reader from Caliper Life Sciences, a PerkinElmer Company (Hopkinton, Mass.), and the activity was measured by off-chip mobility shift assay measuring the charge/mass difference between substrate and product resulting from peptide phosphorilation. IC50 and efficacy were determined by plotting log [Inhibitor] vs. % Activity in GeneData Screener (Basel, Switzerland).

T1 sequence (Q06187 whole entry): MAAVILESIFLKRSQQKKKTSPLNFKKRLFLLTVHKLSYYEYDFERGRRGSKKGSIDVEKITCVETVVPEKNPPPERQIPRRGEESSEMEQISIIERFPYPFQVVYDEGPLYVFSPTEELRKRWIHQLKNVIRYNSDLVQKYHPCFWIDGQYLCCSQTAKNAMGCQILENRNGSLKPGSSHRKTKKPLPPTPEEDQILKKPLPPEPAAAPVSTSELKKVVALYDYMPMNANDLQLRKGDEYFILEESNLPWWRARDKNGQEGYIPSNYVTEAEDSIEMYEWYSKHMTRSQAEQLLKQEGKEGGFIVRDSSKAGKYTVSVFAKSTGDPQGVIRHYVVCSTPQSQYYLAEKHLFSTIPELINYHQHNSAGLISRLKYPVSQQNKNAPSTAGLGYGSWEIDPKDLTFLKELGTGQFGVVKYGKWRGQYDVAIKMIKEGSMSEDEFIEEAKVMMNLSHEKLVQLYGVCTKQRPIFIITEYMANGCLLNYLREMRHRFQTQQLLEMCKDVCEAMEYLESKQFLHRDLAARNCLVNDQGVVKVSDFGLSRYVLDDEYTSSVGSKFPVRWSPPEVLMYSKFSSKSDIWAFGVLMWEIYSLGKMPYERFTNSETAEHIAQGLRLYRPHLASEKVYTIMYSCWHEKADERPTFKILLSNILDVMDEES

Compound	IC50
CN(C)C/C=C/C(=O)N[C@H]1C[C@H](n2ncc3ncnc(Oc4ccc(Oc5ccccc5)cc4)c32)C1 [Compound 41, (E)-4-(dimethylamino)-N-((1r,3r)-3-(7-(4-phenoxyphenoxy)-1H-pyrazolo[4,3-d]pyrimidin-1-yl)cyclobutyl)but-2-enamide]	100 to 1000 nM
C=CC(=O)N1CC(n2ccc3ncnc(Oc4ccc(Cc5ccccc5)cc4)c32)C1 [Compound 17, 1-(3-(4-(4-benzylphenoxy)-5H-pyrrolo[3,2-d]pyrimidin-5-yl)azetidin-1-yl)prop-2-en-1-one]	< 100 nM
C=CC(=O)NCCCn1ccc2ncnc(Oc3ccc(Oc4ccccc4)cc3)c21 [Compound 26, N-(3-(4-(4-phenoxyphenoxy)-5H-pyrrolo[3,2-d]pyrimidin-5-yl)propyl)acrylamide]	< 100 nM
C=CC(=O)N1CC(n2ccc3ncc(-c4cnn(Cc5ccccc5)c4)nc32)C1 [Compound 52, 1-(3-(3-(1-benzyl-1H-pyrazol-4-yl)-5H-pyrrolo[2,3-b]pyrazin-5-yl)azetidin-1-yl)prop-2-en-1-one]	100 to 1000 nM
N#CN1CC(Cn2ccc3ncnc(Oc4ccc(Oc5ccccc5)cc4)c32)C1 [Compound 66, 3-[[4-(4-phenoxyphenoxy)-5H-pyrrolo[3,2-d]pyrimidin-5-yl]methyl]azetidine-1-carbonitrile]	1000 to 5000 nM
CN(C#N)[C@H]1C[C@H](n2ccc3ncnc(Oc4ccc(Oc5ccccc5)cc4)c32)C1 [Compound 67, (1R,3R)—N-cyano-N-methyl-3-[4-(4-phenoxyphenoxy)-5H-pyrrolo[3,2-d]pyrimidin-5-yl]cyclobutan-1-amine]	100 to 1000 nM
C=CC(=O)N1CC(n2ccc3ncnc(Oc4ccc(NC(=O)c5ccccc5)cc4)c32)C1 [Compound 35, N-(4-((5-(1-acryloylazetidin-3-yl)-5H-pyrrolo[3,2-d]pyrimidin-4-yl)oxy)phenyl)benzamide]	100 to 1000 nM
N#CN1CCC(Cn2ccc3ncnc(Oc4ccc(Oc5ccccc5)cc4)c32)CC1 [Compound 59, 4-[[4-(4-phenoxyphenoxy)-5H-pyrrolo[3,2-d]pyrimidin-5-yl]methyl]piperidine-1-carbonitrile]	> 5000 nM
C=CC(=O)NCCn1ccc2ncnc(Oc3ccc(Oc4ccccc4)cc3)c21 [Compound 42, N-(2-(4-(4-phenoxyphenoxy)-5H-pyrrolo[3,2-d]pyrimidin-5-yl)ethyl)acrylamide]	1000 to 5000 nM
N#CN1CCCCC1Cn1ccc2ncnc(Oc3ccc(Oc4ccccc4)cc3)c21 (centres unmarked) [Compound 62, 2-[[4-(4-phenoxyphenoxy)-5H-pyrrolo[3,2-d]pyrimidin-5-yl]methyl]piperidine-1-carbonitrile]	1000 to 5000 nM
NCCOCCOCCOCCOCCC(=O)NCCN1CCN(C/C=C/C(=O)N2CCC(n3ccc4ncnc(Oc5ccc(Oc6ccccc6)cc5)c43)CC2)CC1 [Compound 73, (E)-1-amino-N-(2-(4-(4-oxo-4-(4-(4-(4-phenoxyphenoxy)-5H-pyrrolo[3,2-d]pyrimidin-5-yl)piperidin-1-yl)but-2-en-1-yl)piperazin-1-yl)ethyl)-3,6,9,12-tetraoxapentadecan-15-amide]	< 100 nM
C=CC(=O)N1CC(n2ccc3ncnc(Oc4ccc(Nc5ccccc5)cc4)c32)C1 [Compound 22, 1-(3-(4-(4-(phenylamino)phenoxy)-5H-pyrrolo[3,2-d]pyrimidin-5-yl)azetidin-1-yl)prop-2-en-1-one]	< 100 nM
CC1=CC(C)=[N+]2C1=Cc1ccc(CCC(=O)NCCN3CCN(C/C=C/C(=O)N4CC(n5ccc6ncnc(Oc7ccc(Oc8ccccc8)cc7)c65)C4)CC3)n1[B-]2(F)F [Compound 32, (E)-5,5-difluoro-1,3-dimethyl-7-(3-oxo-3-((2-(4-(4-oxo-4-(3-(4-(4-phenoxyphenoxy)-5H-pyrrolo[3,2-d]pyrimidin-5-yl)azetidin-1-yl)but-2-en-1-yl)piperazin-1-yl)ethyl)amino)propyl)-5H-dipyrrolo[1,2-c:2′,1′-f][1,3,2]diazaborinin-4-ium-5-uide]	100 to 1000 nM
N#CN1CC[C@H](n2ccc3ncnc(Oc4ccc(Oc5ccc(F)cc5F)cc4)c32)C1 [Compound 76]	100 to 1000 nM
C=CC(=O)N1CC[C@@H]1Cn1ccc2ncnc(Oc3ccc(Oc4ccccc4)cc3)c21 [Compound 9, (R)-1-(2-((4-(4-phenoxyphenoxy)-5H-pyrrolo[3,2-d]pyrimidin-5-yl)methyl)azetidin-1-yl)prop-2-en-1-one]	< 100 nM
C=CC(=O)N1CCC(n2ncc3ncnc(Oc4ccc(Oc5ccccc5)cc4)c32)CC1 [Compound 12, 1-(4-(7-(4-phenoxyphenoxy)-1H-pyrazolo[4,3-d]pyrimidin-1-yl)piperidin-1-yl)prop-2-en-1-one]	< 100 nM

Compound	IC50
C=CC(=O)N1CC(n2ncc3ncc(-c4ccc(Oc5ccccc5)cc4)nc32)C1 [Compound 23, 1-(3-(6-(4-phenoxyphenyl)-1H-pyrazolo[3,4-b]pyrazin-1-yl)azetidin-1-yl)prop-2-en-1-one]	< 100 nM
CN(C)C/C=C/C(=O)N[C@H]1C[C@H](n2ccc3ncnc(Oc4ccc(Oc5ccccc5)cc4)c32)C1 [Compound 33, (E)-4-(dimethylamino)-N-(trans-3-(4-(4-phenoxyphenoxy)-5H-pyrrolo[3,2-d]pyrimidin-5-yl)cyclobutyl)but-2-enamide]	100 to 1000 nM
C=CC(=O)N1CC(n2ccc3ncnc(Nc4ccc(Oc5ccccc5)cc4)c32)C1 [Compound 6, 1-(3-(4-((4-phenoxyphenyl)amino)-5H-pyrrolo[3,2-d]pyrimidin-5-yl)azetidin-1-yl)prop-2-en-1-one]	< 100 nM
N#CN1CCCC1Cn1ccc2ncnc(Oc3ccc(Oc4ccccc4)cc3)c21 (centres unmarked) [Compound 61, 2-[[4-(4-phenoxyphenoxy)-5H-pyrrolo[3,2-d]pyrimidin-5-yl]methyl]pyrrolidine-1-carbonitrile]	1000 to 5000 nM
N#CN1CCC1Cn1ccc2ncnc(Oc3ccc(Oc4ccccc4)cc3)c21 (centres unmarked) [Compound 65, 2-[[4-(4-phenoxyphenoxy)-5H-pyrrolo[3,2-d]pyrimidin-5-yl]methyl]azetidine-1-carbonitrile]	1000 to 5000 nM
C=CC(=O)N1CC(n2ccc3ncc(-c4ccc(Oc5ccccc5)cc4)nc32)C1 [Compound 7, 1-(3-(3-(4-phenoxyphenyl)-5H-pyrrolo[2,3-b]pyrazin-5-yl)azetidin-1-yl)prop-2-en-1-one]	< 100 nM
CN(C)C/C=C/C(=O)N[C@H]1C[C@@H](n2ncc3ncnc(Oc4ccc(Oc5ccccc5)cc4)c32)C1 [Compound 36, (E)-4-(dimethylamino)-N-((1s,3s)-3-(7-(4-phenoxyphenoxy)-1H-pyrazolo[4,3-d]pyrimidin-1-yl)cyclobutyl)but-2-enamide]	100 to 1000 nM
CCC/C=C(\C#N)C(=O)N1CCC(n2ccc3ncnc(Oc4ccc(Oc5ccccc5)cc4)c32)CC1 [Compound 55, (E)-2-(4-(4-(4-phenoxyphenoxy)-5H-pyrrolo[3,2-d]pyrimidin-5-yl)piperidine-1-carbonyl)hex-2-enenitrile]	1000 to 5000 nM
C=C(C)C(=O)N1CC(n2ccc3ncnc(Oc4ccc(Oc5ccccc5)cc4)c32)C1 [Compound 51, 2-methyl-1-(3-(4-(4-phenoxyphenoxy)-5H-pyrrolo[3,2-d]pyrimidin-5-yl)azetidin-1-yl)prop-2-en-1-one]	> 5000 nM
C=CC(=O)N1CCC(n2ccc3ncnc(Oc4ccc(Oc5ccccc5)cc4)c32)CC1 [Compound 2, 1-(4-(4-(4-phenoxyphenoxy)-5H-pyrrolo[3,2-d]pyrimidin-5-yl)piperidin-1-yl)prop-2-en-1-one]	< 100 nM
C=CC(=O)N1CC(Cn2ccc3ncnc(Oc4ccc(Oc5ccccc5)cc4)c32)C1 [Compound 20, 1-(3-((4-(4-phenoxyphenoxy)-5H-pyrrolo[3,2-d]pyrimidin-5-yl)methyl)azetidin-1-yl)prop-2-en-1-one]	< 100 nM
C=CC(=O)N1CCC(Cn2ccc3ncnc(-c4ccc(Oc5ccccc5)cc4)c32)C1 (centres unmarked) [Compound 46, 1-(3-((4-(4-phenoxyphenyl)-5H-pyrrolo[3,2-d]pyrimidin-5-yl)methyl)pyrrolidin-1-yl)prop-2-en-1-one]	1000 to 5000 nM
N#CN1CCC(Cn2ccc3ncnc(Oc4ccc(Oc5ccccc5)cc4)c32)C1 (centres unmarked) [Compound 58, 3-[[4-(4-phenoxyphenoxy)-5H-pyrrolo[3,2-d]pyrimidin-5-yl]methyl]pyrrolidine-1-carbonitrile]	1000 to 5000 nM
CN(C)C/C=C/C(=O)N1CCCC(Cn2ccc3ncnc(Oc4ccc(Oc5ccccc5)cc4)c32)C1 (centres unmarked) [Compound 30, (E)-4-(dimethylamino)-1-(3-((4-(4-phenoxyphenoxy)-5H-pyrrolo[3,2-d]pyrimidin-5-yl)methyl)piperidin-1-yl)but-2-en-1-one]	< 100 nM
C=CC(=O)N1CCCC(Cn2ccc3ncnc(Oc4ccc(Oc5ccccc5)cc4)c32)C1 (centres unmarked) [Compound 15, 1-(3-((4-(4-phenoxyphenoxy)-5H-pyrrolo[3,2-d]pyrimidin-5-yl)methyl)piperidin-1-yl)prop-2-en-1-one]	< 100 nM
C=CC(=O)N1CCC(Cn2ccc3ncnc(-c4cccc(Oc5ccccc5)c4)c32)C1 (centres unmarked) [Compound 40, 1-(3-((4-(3-phenoxyphenyl)-5H-pyrrolo[3,2-d]pyrimidin-5-yl)methyl)pyrrolidin-1-yl)prop-2-en-1-one]	100 to 1000 nM
